Values after ≈ are worked out from the molar mass of the structure shown. Like-named read-outs stand apart in the source and are kept apart here. *1 amine or outer side, *2 acyl side, *3 side chain or, on linkers, in order; H or OH if unused. Where a SMILES comes first, the peptide text is derived from it. Bridges are numbered along the chain shown (N, C = ends). [ ]: non-standard residue; d: D form. The star is where a group is joined. ξ: configuration not given here. Phe(3,5-F2) = N[C@@H](Cc1cc(F)cc(F)c1)C(=O)O; NH(4-OCF3-phenyl) = FC(F)(F)Oc1ccc(N*)cc1; ξPro(4S-Me) = C[C@@H]1CNC(C(=O)O)C1; ξPro(4R-Me) = C[C@H]1CNC(C(=O)O)C1; NH(4-Me-phenyl) = Cc1ccc(N*)cc1; aThr = C[C@H](O)[C@H](N)C(=O)O; X5 = O=C(C1COCCN1[*:1])[*:2]; NMeA = CN[C@@H](C)C(=O)O; ξPip = O=C(O)C1CCCCN1; CO = O=C([*:1])[*:2]; ξP = O=C(O)C1CCCN1
Key:
Assay type in all cases: cell-based
[1] = test system: Vero (kidney epithelial cells; ATCC CCL-81); experiment: Cytotoxicity assay (CellTiter-Glo cell viability, 72 hours)
Method in brief: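 Viability measured by CellTiter-Glo luminescence after 72-hour compound exposure (serial dilutions, DMSO control) of Vero monolayers seeded at 5000 cells/well in 10% FBS DMEM. IC50 values are the range of two biologically independent experiments, each run in duplicate.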

[2] = test system: Staphylococcus aureus, NRS70; experiment: Minimal inhibitory concentration assay (microbroth dilution)
Method in brief: (§1)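 Paired MICs against USA 300 and its ClpP-inactivated counterpart test whether killing runs through ClpP. All strains: two-fold broth dilutions from 200 μM final, ~10^5 cfu/mL inoculum, overnight at 37 °C in air, lowest growth-free concentration read by eye.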

[3] = test system: Staphylococcus aureus, ATCC 29213; experiment: as above; conditions: ATCC29213, read-out: Minimal Inhibitory Concentrations S. aureus ATCC 29213
Method in brief: as §1

[4] = test system: Bacillus subtilis, ATCC 23857; experiment: as above
Method in brief: as §1

[5] = test system: Staphylococcus aureus, USA 300 wherein ClpP is inactivated; experiment: Minimal inhibitory concentration assay
Method in brief: as §1

[6] = test system: Staphylococcus aureus, USA 300; experiment: Minimal inhibitory concentration assay; conditions: USA300, read-out: Minimal Inhibitory Concentrations S. aureus USA 300
Method in brief: as §1

[7] = test system: Streptococcus pneumoniae, R6; experiment: Minimal inhibitory concentration assay; conditions: read-out: Minimal Inhibitory Concentrations S. pneumoniae R6
Procedure: It is understood, that in various aspects, the MIC is determined by a microbroth dilution method. […] In a still further aspect, the MIC is determined by a microbroth dilution method using Staphylococcus aureus, NRS70. […] In an even further aspect, the MIC is determined by a microbroth dilution method using Streptococcus pneumoniae, DAW27. […] In an even further aspect, the MIC is determined using Staphylococcus aureus, USA 300. In a still further aspect, the MIC is determined using Streptococcus pneumoniae, R6. In a further aspect, the MIC is determined using Staphylococcus aureus, USA 300 and compared to the MIC determined using Staphylococcus aureus, USA 300 wherein ClpP is inactivated, thus allowing confirmation that killing is via a ClpP-dependent pathway.
Two fold serial dilutions of test compound in 100 μL of the appropriate broth media were first prepared in 96-well round bottom microtiter plates (Nalgene Nunc International, Rochester, N.Y., USA). […] The plates were then incubated aerobically at 37° C. All strains were incubated overnight. After incubations, in all cases the MIC was recorded as the lowest concentration of drug that prevented bacterial growth. The bacterial strains for which MIC was determined as described in Table 4.

[8] = test system: Streptococcus pyogenes, ATCC 700294; experiment: Minimal inhibitory concentration assay (microbroth dilution)
Method in brief: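 Plates with two-fold compound dilution series in broth were incubated overnight, aerobically, at 37° C, following CLSI microdilution guidance.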

[9] = test system: Enterococcus faecalis, ATCC 33186; experiment: as above; conditions: Enterococcus faecalis, ATCC33186, read-out: Minimal Inhibitory Concentrations E. faecalis ATCC 33186
Method in brief: as §1

[10] = Vero cells, 72 hours, growth inhibition, read-out: Cytotoxicity IC50
[11] = Staphylococcus aureus, NRS70, read-out: Minimal Inhibitory Concentrations S. aureus NRS70
[12] = Bacillus subtilis, ATCC23857, read-out: Minimal Inhibitory Concentrations B. subtilis ATCC 23857
[13] = Streptococcus pyogenes, ATCC700294, read-out: Minimal Inhibitory Concentrations S. pyogenes ATCC 700294

SMILES	IC50 [1, 10]	MIC [2, 11]	MIC [3]	MIC [4, 12]	Minimal Inhibitory Concentrations S. aureus USA 300 ΔClpP [5]	MIC [6]	MIC [7]	MIC [8, 13]	IC50 ([1]; African green monkey, 72 h)	MIC ([2]; Staphylococcus aureus, NRS70; read-out: Minimal Inhibitory Concentrations S. aureus NRS70)	MIC ([4]; Bacillus subtilis, ATCC23857; read-out: Minimal Inhibitory Concentrations B. subtilis ATCC 23857)	MIC ([8]; Streptococcus pyogenes, ATCC700294; read-out: Minimal Inhibitory Concentrations S. pyogenes ATCC 700294)	MIC [9]
Cc1ccc(NC(=O)N[C@@H](Cc2cc(F)cc(F)c2)C(=O)N[C@@H]2C(=O)N3CCCC3C(=O)N3CCCCC3C(=O)N[C@@H](C)C(=O)N3C[C@H](C)CC3C(=O)O[C@H]2C)cc1 (stereo partly drawn) [Compound 39, (S)-3-(3,5-difluorophenyl)-2-(3-(p-tolyl)ureido)-N-((2R,6S,8aS,14aS,20S,21S,23aS)-2,6,21-trimethyl-5,8,14,19,23-pentaoxooctadecahydro-1H,5H,14H,19H-pyrido[2,1-i]dipyrrolo[2,1-c:2′,1′-l][1]oxa[4,7,10,13]tetraazacyclohexadecin-20-yl)propanamide] ({NH(4-Me-phenyl)-CO}-[Phe(3,5-F2)][aThr][ξP][ξPip]A[ξPro(4R-Me)]; ester 2-C)	40 ± 4.1 µM	0.05 µM (≈ 0.0404 µg/mL)	0.05 µM (≈ 0.0404 µg/mL)	0.02 µM (≈ 0.0162 µg/mL)	100 µM	0.05 µM (≈ 0.0404 µg/mL)	0.05 µM (≈ 0.0404 µg/mL)	0.2 µM (≈ 0.162 µg/mL)					
Cc1ccc(NC(=O)N[C@@H](Cc2cc(F)cc(F)c2)C(=O)N[C@@H]2C(=O)N3CCCC3C(=O)N3CCOCC3C(=O)N[C@@H](C)C(=O)N3C[C@@H](C)CC3C(=O)O[C@H]2C)cc1 (stereo partly drawn) [Compound 33, (S)-3-(3,5-difluorophenyl)-2-(3-(p-tolyl)ureido)-N-((6aS,12S,13S,15aS,17S,21S,23aS)-13,17,21-trimethyl-6,11,15,20,23-pentaoxooctadecahydro-6H,11H,15H-[1,4]oxazino[3,4-i]dipyrrolo[2,1-c:2′,1′-l][1]oxa[4,7,10,13]tetraazacyclohexadecin-12-yl)propanamide] ({NH(4-Me-phenyl)-CO}-[Phe(3,5-F2)][aThr][ξP][X5]A[ξPro(4S-Me)]; ester 2-C)	41 ± 4.3 µM	0.1 µM (≈ 0.081 µg/mL)	0.2 µM (≈ 0.162 µg/mL)	0.2 µM (≈ 0.162 µg/mL)	200 µM	0.2 µM (≈ 0.162 µg/mL)	0.098 µM (≈ 0.0794 µg/mL)	0.39 µM (≈ 0.316 µg/mL)					
Cc1ccc(NC(=O)N[C@@H](Cc2cc(F)cc(F)c2)C(=O)N[C@@H]2C(=O)N3CCCC3C(=O)N(C)[C@@H](C)C(=O)N[C@@H](C)C(=O)N3CCCC3C(=O)O[C@H]2C)cc1 (stereo partly drawn) [Compound 25, (2S)-3-(3,5-difluorophenyl)-N-((6S,9S,11aS,17S,18S)-6,9,10,18-tetramethyl-5,8,11,16,20-pentaoxohexadecahydro-1H,5H,16H-dipyrrolo[2,1-c:2′,1′-l][1]oxa[4,7,10,13]tetraazacyclohexadecin-17-yl)-2-(3-(p-tolyl)ureido)propanamide] ({NH(4-Me-phenyl)-CO}-[Phe(3,5-F2)][aThr][ξP][NMeA]A[ξP]; ester 2-C)	10.8 ± 1 µM	0.78 µM (≈ 0.599 µg/mL)	0.78 µM (≈ 0.599 µg/mL)	0.02 µM (≈ 0.0154 µg/mL)	200 µM	0.78 µM (≈ 0.599 µg/mL)	0.254 µM (≈ 0.195 µg/mL)	1 µM (≈ 0.768 µg/mL)					
Cc1ccc(NC(=O)N[C@@H](Cc2cc(F)cc(F)c2)C(=O)N[C@@H]2C(=O)N3CCCC3C(=O)N(C)[C@@H](C)C(=O)N[C@@H](C)C(=O)N3C[C@@H](C)CC3C(=O)O[C@H]2C)cc1 (stereo partly drawn) [Compound 26, (2S)-3-(3,5-difluorophenyl)-N-((2S,6S,9S,11aS,17S,18S)-2,6,9,10,18-pentamethyl-5,8,11,16,20-pentaoxohexadecahydro-1H,5H,16H-dipyrrolo[2,1-c:2′,1′-l][1]oxa[4,7,10,13]tetraazacyclohexadecin-17-yl)-2-(3-(p-tolyl)ureido)propanamide] ({NH(4-Me-phenyl)-CO}-[Phe(3,5-F2)][aThr][ξP][NMeA]A[ξPro(4S-Me)]; ester 2-C)	40.5 ± 3.8 µM	0.2 µM (≈ 0.156 µg/mL)	0.2 µM (≈ 0.156 µg/mL)	0.03 µM (≈ 0.0235 µg/mL)	200 µM	0.39 µM (≈ 0.305 µg/mL)	0.125 µM (≈ 0.0977 µg/mL)	0.5 µM (≈ 0.391 µg/mL)					
C[C@H]1CC2C(=O)O[C@@H](C)[C@H](NC(=O)[C@H](Cc3cc(F)cc(F)c3)NC(=O)Nc3ccc(OC(F)(F)F)cc3)C(=O)N3CCCC3C(=O)N3CCOCC3C(=O)N[C@@H](C)C(=O)N2C1 (stereo partly drawn) [Compound 34, (S)-3-(3,5-difluorophenyl)-2-(3-(4-(trifluoromethoxy)phenyl)ureido)-N-((6aS,12S,13S,15aS,17S,21S,23aS)-13,17,21-trimethyl-6,11,15,20,23-pentaoxooctadecahydro-6H,11H,15H-[1,4]oxazino[3,4-i]dipyrrolo[2,1-c:2′,1′-l][1]oxa[4,7,10,13]tetraazacyclohexadecin-12-yl)propanamide] ({NH(4-OCF3-phenyl)-CO}-[Phe(3,5-F2)][aThr][ξP][X5]A[ξPro(4S-Me)]; ester 2-C)			0.05 µM (≈ 0.044 µg/mL)		50 µM	0.05 µM (≈ 0.044 µg/mL)	0.049 µM (≈ 0.0431 µg/mL)		26 ± 2.6 µM	0.02 µM (≈ 0.0176 µg/mL)	0.02 µM (≈ 0.0176 µg/mL)	0.1 µM (≈ 0.088 µg/mL)	
Cc1ccc(NC(=O)N[C@@H](Cc2cc(F)cc(F)c2)C(=O)N[C@H]2COC(=O)C3C[C@H](C)CN3C(=O)[C@H](C)NC(=O)C3CCCCN3C(=O)C3CCCN3C2=O)cc1 (stereo partly drawn) [Compound 45, (S)-3-(3,5-difluorophenyl)-N-((2S,6S,8aS,14aS,20S,23aS)-2,6-dimethyl-5,8,14,19,23-pentaoxooctadecahydro-1H,5H,14H,19H-pyrido[2,1-i]dipyrrolo[2,1-c:2′,1′-l][1]oxa[4,7,10,13]tetraazacyclohexadecin-20-yl)-2-(3-(p-tolyl)ureido)propanamide]	56.8 ± 6.7 µM	0.2 to 0.4 µM (≈ 0.159 to 0.318 µg/mL)	0.4 µM (≈ 0.318 µg/mL)		100 µM	0.4 µM (≈ 0.318 µg/mL)	0.1 µM (≈ 0.0794 µg/mL)	0.4 µM (≈ 0.318 µg/mL)					
Cc1ccc(NC(=O)N[C@@H](Cc2ccccc2)C(=O)N[C@H]2COC(=O)C3C[C@H](C)CN3C(=O)[C@H](C)NC(=O)C3CCCCN3C(=O)C3CCCN3C2=O)cc1 (stereo partly drawn) [Compound 43, (S)—N-((2S,6S,8aS,14aS,20S,23aS)-2,6-dimethyl-5,8,14,19,23-pentaoxooctadecahydro-1H,5H,14H,19H-pyrido[2,1-i]dipyrrolo[2,1-c:2′,1′-l][1]oxa[4,7,10,13]tetraazacyclohexadecin-20-yl)-3-phenyl-2-(3-(p-tolyl)ureido)propanamide]	74.5 ± 8.8 µM	1.6 µM (≈ 1.21 µg/mL)	1.6 µM (≈ 1.21 µg/mL)	0.4 µM (≈ 0.303 µg/mL)	>200 µM	3.1 µM (≈ 2.35 µg/mL)	0.2 µM (≈ 0.152 µg/mL)	0.8 µM (≈ 0.606 µg/mL)					
Cc1ccc(NC(=O)N[C@@H](Cc2ccccc2)C(=O)N[C@H]2COC(=O)[C@@H]3C[C@@H](C)CN3C(=O)[C@H](C)NC(=O)[C@@H]3CCCCN3C(=O)[C@@H]3CCCN3C2=O)cc1 [Compound 23, (S)—N-((2R,6S,8aS,14aS,20S,23aS)-2,6-dimethyl-5,8,14,19,23-pentaoxooctadecahydro-1H,5H,14H,19H-pyrido[2,1-i]dipyrrolo[2,1-c:2′,1′-l][1]oxa[4,7,10,13]tetraazacyclohexadecin-20-yl)-3-phenyl-2-(3-(p-tolyl)ureido)propanamide]	74 ± 7.7 µM	0.4 µM (≈ 0.303 µg/mL)	0.4 µM (≈ 0.303 µg/mL)	< 0.2 µM		0.1 µM (≈ 0.0758 µg/mL)	< 0.2 µM	< 0.2 µM					< 0.2 µM
